Laboratory results: ChEMBL document CHEMBL1151067, “Stereoselectivity in the hydrolysis of synthetic esters by cultured cancer cells and normal tissue extracts of rat” (1994)

Experiments:
ARIP cell line = assay: Stereoselectivity in enzymic hydrolysis by rat cancer ARIP cells; assay type: functional
Rattus norvegicus [1] = species on record: Rattus norvegicus; assay: Stereoselectivity in enzymic hydrolysis by normal rat intestine extracts; assay type: functional
CCRF S-180 [2] = assay: Stereoselectivity in enzymic hydrolysis by mouse sarcoma S180 cells; assay type: functional
XC = assay: Stereoselectivity in enzymic hydrolysis by rat cancer XC cells; assay type: functional
NRK-49F = assay: Stereoselectivity in enzymic hydrolysis by rat cancer NRK49F cells; assay type: functional
Rattus norvegicus [3] = species on record: Rattus norvegicus; assay: Stereoselectivity in enzymic hydrolysis by normal rat pancreas extracts; assay type: functional
Rattus norvegicus [4] = species on record: Rattus norvegicus; assay: Stereoselectivity in enzymic hydrolysis by normal rat kidney extracts; assay type: functional
COLO 320 = assay: Stereoselectivity in enzymic hydrolysis by human cancer COLO 320 (colon adenocarcinoma) cells; assay type: functional
Rattus norvegicus [5] = species on record: Rattus norvegicus; assay: Stereoselectivity in enzymic hydrolysis by normal rat muscle extracts; assay type: functional, Muscle tissue
Anr4 = assay: Stereoselectivity in enzymic hydrolysis by rat cancer Anr4 cells; assay type: functional
Rattus norvegicus [6] = species on record: Rattus norvegicus; assay: Stereoselectivity in enzymic hydrolysis by normal rat liver extracts; assay type: functional
IA-XsSBR cell line = assay: Stereoselectivity in enzymic hydrolysis by rat cancer IA-XsSBR cells; assay type: functional
U-937 = assay: Stereoselectivity in enzymic hydrolysis by human cancer U937 (histiocytic lymphoma) cells; assay type: functional
MIA PaCa-2 = assay: Stereoselectivity in enzymic hydrolysis by human cancer MIA PaCa-2 (pancreatic carcinoma) cells; assay type: functional
CCRF S-180 [7] = assay: Stereoselectivity in enzymic hydrolysis of compound by mouse sarcoma S180 cells; assay type: functional

SMILES	Conversion rate (ARIP cell line)	Conversion rate (Rattus norvegicus [1])	Conversion rate (CCRF S-180 [2])	Conversion rate (XC)	Conversion rate (NRK-49F)	Conversion rate (Rattus norvegicus [3])	Conversion rate (Rattus norvegicus [4])	Conversion rate (COLO 320)	Conversion rate (Rattus norvegicus [5])	Conversion rate (Anr4)	Conversion rate (Rattus norvegicus [6])	Conversion rate (IA-XsSBR cell line)	Conversion rate (U-937)	Conversion rate (MIA PaCa-2)	Conversion rate (CCRF S-180 [7])
CCOC(=O)C(NC=O)c1ccccc1 (stereo not drawn)	1.6%	1.4%	3.6%	1.2%	2.2%	14.3%	7.6%	3.8%	5.9%	1.2%	2.7%	1.3%	3.5%		
CCOC(=O)C(OC)c1ccccc1 (stereo not drawn)			4.3%												
CCCCCCCCOC(=O)C(C)c1ccccc1 (stereo not drawn)			11%												
CCOC(=O)C(Cc1ccccc1)NC(C)=O (stereo not drawn)	37.2%	37.3%	12.9%	42%	35.1%	43.8%	23.2%	13.8%	31.9%	30.6%	48.2%	30.5%	17.5%	42%	
CCOC(=O)C(O)c1ccccc1 (stereo not drawn)			21.2%												
CCOC(=O)C(C)c1ccccc1 (stereo not drawn)	6.9%	5%		0.6%	8.2%	1.2%	11.2%	1.2%	1%	0.5%	11.5%	1.4%	1.4%	11.9%	18.1%
CCOC(=O)C(C)Oc1ccccc1 (stereo not drawn)	5.7%	5%	38.9%	23%	4.5%	33.3%	53%		18%	14.2%	52.5%	12.2%		35.9%	
CCOC(=O)C(NC(C)=O)c1ccccc1 (stereo not drawn)			4.3%												
CC(C(=O)OCCC1CCCCC1)c1ccccc1 (stereo not drawn)			6.1%												
